Laboratory results published in patent US11197888B2, “LHRH-platinum conjugates for treating reproductive cancers” (priority 2015, dated 2021).

Test system: 4T1 tumors
Experiment: In-vivo analysis of impact on 4T1 tumor growth in Balb/c mice
Set-up: species or system female Balb/c mice
Conditions: 4T1 tumors in mammary fat pad, carboplatin 5 mg/kg/wk or molar-equivalent Pt-LHRH, IP, 2 weeks, vs control
Description: In this experiment at least one eleven week old female Balb/c mice were utilized. The animals were allowed to acclimate for 1 week before experimentation and were maintained on a 12 hours light and dark cycle, and fed standard rodent chow (Prolab ISOPRO RMH 3000 Irradiated Lab Diet; Purina Mills International). Animal protocols were approved by the committee on animal research care and use at Eastern Kentucky University. 4T1 tumors were grown in the right abdominal mammary fat pad of the mice for 7 days. After tumor initiation (˜100 mm3) the mice were administered Pt-LHRH (carboplatin molar-equivalent dosage) through IP injection and compared to those treated with carboplatin (5 mg/kg/wk), no treatment, and LHRH plus carboplatin (unbound) controls for 2 weeks. Tumor growth was monitored daily and tumor volumes (mm3) were calculated using the formula: (width) 2×length/2, where width is the smaller of the two measurements. At two weeks the mice were sacrificed and tumor volume and weight were measured.

Question: How did the tumor growth turn out when `N.N.O=C([O-])C1(C(=O)[O-])CCC1.[Pt+2]` [carboplatin] was run?
Answer: no statistically significant reduction in tumor growth
